Reference: US5731155A, “Compositions for inhibition of intracellular transcription factors and methods therefor” (Washington University, priority 1996, dated 1998)
Entries after “also recorded” stand apart in the source; their conditions may differ. Where a SMILES comes first, the peptide text is derived from it. [ ]: non-standard residue; d: D form. The star is where a group is joined. Biotin = O=C1N[C@H]2[C@H](CS[C@H]2CCCCC(=O)*)N1; pY = N[C@@H](Cc1ccc(OP(=O)(O)O)cc1)C(=O)O; Ahx = NCCCCCC(=O)O

Assays:
STAT3 [1] = molecular target: T1, STAT3 (Mus musculus, UniProt P42227); test: Precipitation of STAT3 from BaMR cytosolic homogenates with biotinylated IL-10 receptor peptides; format: binding; conditions: for precipitation of / binding to the 92 kD STAT3 protein: biotinylated 12 amino acid peptides, BaMR cytosolic homogenates; for concentration of biotinylated peptide sufficient to precipitate STAT3 (comparable amounts): increasing peptide concentrations, data not shown
T1 construct: Cytosolic homogenates of BaMR cells were precipitated with the biotinylated 12 amino acid peptides; endogenous in cells; host or cells: BaMR (BaF3 pre-B cells transfected with the IL-10 receptor) homogenates
T1 sequence (P42227 whole entry): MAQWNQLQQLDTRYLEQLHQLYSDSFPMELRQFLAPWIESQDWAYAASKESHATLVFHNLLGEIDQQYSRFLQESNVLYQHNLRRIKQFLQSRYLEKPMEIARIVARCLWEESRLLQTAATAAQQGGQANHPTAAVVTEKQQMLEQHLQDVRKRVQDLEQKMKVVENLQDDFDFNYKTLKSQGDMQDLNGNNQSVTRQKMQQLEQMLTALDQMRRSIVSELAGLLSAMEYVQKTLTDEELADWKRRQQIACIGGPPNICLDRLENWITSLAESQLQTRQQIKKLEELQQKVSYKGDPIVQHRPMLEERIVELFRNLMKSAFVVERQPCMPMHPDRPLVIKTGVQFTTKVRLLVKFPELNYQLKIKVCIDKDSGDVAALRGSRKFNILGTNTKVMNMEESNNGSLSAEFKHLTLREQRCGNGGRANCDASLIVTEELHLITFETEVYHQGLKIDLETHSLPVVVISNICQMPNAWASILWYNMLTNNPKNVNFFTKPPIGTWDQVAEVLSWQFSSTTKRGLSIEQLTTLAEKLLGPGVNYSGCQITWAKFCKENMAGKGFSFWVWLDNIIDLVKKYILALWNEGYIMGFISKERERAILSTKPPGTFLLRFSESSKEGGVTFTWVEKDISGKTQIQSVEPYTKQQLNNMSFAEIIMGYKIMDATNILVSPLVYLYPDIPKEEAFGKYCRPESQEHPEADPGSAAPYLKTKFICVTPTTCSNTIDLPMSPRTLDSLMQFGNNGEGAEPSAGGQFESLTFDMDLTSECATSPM
From the text: Aminoterminally biotinylated peptides were synthesized comprising 12 amino acids in which the peptides each contained a different region of the IL-10 receptor intracellular domain containing a tyrosine residue. These peptides corresponded to positions 370 to 381 (SEQ ID NO:26, Gln-Gln-Leu-Gly-Xaa-His-Gln-Asp-Gln-Asp-Asp-Ser), 392-403 (SEQ ID NO:27, Gly-Gln-Pro-Lys-Xaa-Thr-Gln-Asp-Ala-Ser-Asp-Leu), 423 to 434 (SEQ ID NO:24, Thr-Phe-Gln-Gly-Xaa-Gln-Lys-Gln-Thr-Arg-Trp-Lys) and 473 to 484 (SEQ ID NO:25, Leu-Ala-Ala-Gly-Xaa-Leu-Lys-Gln-Glu-Ser-Gln-Gly) in which the amino acids identified in the sequence as Xaa in positions 374, 396, 427, and 477 of the respectively peptides are phosphorylated tyrosines. In addition, the sequences 423 to 434 (SEQ ID NO:28, Thr-Phe-Gln-Gly-Tyr-Gln-Lys-Gln-Thr-Arg-Trp-Lys) and 473 to 484 (SEQ ID NO:29, Leu-Ala-Ala-Gly-Tyr-Leu-Lys-Gln-Glu-Ser-Gln-Gly) contained the non-phosphorylated tyrosines in the positions 427, and 477 of the IL-10 receptor intracellular domain. Cytosolic homogenates of BaMR cells were precipitated with the biotinylated 12 amino acid peptides. […] In contrast to this, no binding to the STAT3 transcription factor occurred with the peptides containing phosphorylated tyrosines in positions 374 (SEQ ID NO:26) and 396 (SEQ ID NO:27), the peptides containing non-phosphorylated tyrosines in positions 427 (SEQ ID NO:28) and 477 (SEQ ID NO:29) and the phosphorylated peptide corresponding to the amino acid sequences 436 to 447 of the IFNγ receptor α chain intracellular domain (FIG. 10). Whereas both the 427 and the 477 phosphopeptides precipitated the STAT3 transcription factor, none of the phosphopeptides coprecipitated STAT1.

STAT3 [2] = molecular target: T1, STAT3; test: Inhibition of IL-10 dependent STAT3 phosphorylation in BaMR cell homogenates; format: biochemical; conditions: for effect on IL-10 dependent phosphorylation of STAT3: peptide 100 μM, 45 minutes at 4° C., then 100 ng/ml IL-10
Procedure: BaMR cell homogenates were prepared in a Dounce homogenizer and 18 μg of total protein was incubated without or with IL-10 at a concentration of 100 ng/ml for 15 minutes at 37° C. (FIG. 11, lanes 1 and 2). In lanes 3-8, 18 μg total protein of the BaMR homogenates was incubated for 45 minutes at 4° C. with a 100 μM concentration of the IL-10-receptor peptides having phosphorylated tyrosines at positions 374 (SEQ ID NO:26), 396 (SEQ ID NO:27), 427(SEQ ID NO:24), and 477(SEQ ID NO:25) (lanes 3-6) or 100 μM concentration of the non phosphorylated peptides having tyrosines at positions 427 (SEQ ID NO:28) and 477 (SEQ ID NO:29). Reaction mixtures were stimulated with 100 ng/ml IL-10 as described above and homogenates were precipitated with STAT3 or STAT1 specific antisera. Precipitates were blotted with phosphotyrosine specific antibody RC-20 and reactions developed using the ECL-system. Blots were stripped and reblotted with STAT3 and STAT1 specific antisera, respectively.

IFNγ receptor α chain = test: IFNγ dependent tyrosine phosphorylation of the IFNγ receptor α chain in Colo-205 cells (4G10 western blot); format: cell-based, human; conditions: Colo-205 treated for 5 minutes
From the text: For these experiments, Colo-205, a human adenocarcinoma cell line obtained from the ATCC, was used because it was known to express a high number of IFNγ receptors (10,000 receptors/cell) and has been well characterized with regard to both biologic responsiveness to IFNγ and IFNγ receptor […] phosphorylation (Hershey and Schreiber, 1989; Hershey et al., 1990 both of which are incorporated by reference). Colo-205 cells (5-10×10^7) were resuspended in one ml of PBS-10% FCS and were then incubated at 37° C., either in the presence or absence of rHuIFNγ (10,000 IRU). Purified recombinant human IFNγ was provided by Dr. Susan Kramer of Genentech, Inc. (South San Francisco, Calif.). […] Purified rHuIFNγ was radioiodinated, using Bolton Hunter reagent (ICN Chemicals, Radioisotope Division, Irvine, Calif.) to specific activities of 6.5-17.8 μCi/μg as described in Celada et al. (J Clin Invest 76:2196-2205, 1985 which is incorporated by reference). The reaction was stopped by adding 4 mls of ice-cold PBS. Cells were pelleted, washed once in ice-cold PBS, and then lysed in one ml of lysis buffer (25 mM Tris-HCl (pH 8.0), 1% NP-40, 150 mM NaCl, 1 mM sodium orthovanadate, 10 mM NaF, 1 mM PMSF, 5mM iodoacetamide, […] leupeptin and aprotinin). Solubilized cells were centrifuged at 15,000×g to remove cell nuclei and the supernatants were then incubated with 10 μg of GIR-94 for 30 minutes at 4° C. Protein G sepharose was added to the reaction mixture and the incubation continued for an additional 30 minutes. […]
To determine the amount of receptor precipitated at each time point, aliquots from each immunoprecipitate were subjected to western blot analysis using a monoclonal antibody (GIR-94, a murine antibody IgG2b) that is specific for the human IFNγ receptor extracellular domain. In the absence of added IFNγ, no tyrosine phosphorylated receptor was detected (FIG. 1, lane 1). […]

Compound | precipitation of / binding to the 92 kD STAT3 protein (STAT3 [1]) | other results
CC(C)C[C@H](NC(=O)[C@H](CCC(N)=O)NC(=O)[C@H](CCC(N)=O)NC(=O)CCCCCNC(=O)CCCC[C@@H]1SC[C@@H]2NC(=O)N[C@@H]21)C(=O)NCC(=O)N[C@@H](Cc1ccc(OP(=O)(O)O)cc1)C(=O)N[C@@H](Cc1c[nH]cn1)C(=O)N[C@@H](CCC(N)=O)C(=O)N[C@@H](CC(=O)O)C(=O)N[C@@H](CCC(N)=O)C(=O)N[C@@H](CC(=O)O)C(=O)N[C@@H](CC(=O)O)C(=O)N[C@@H](CO)C(=O)O [SEQ ID NO:26, Gln-Gln-Leu-Gly-Xaa-His-Gln-Asp-Gln-Asp-Asp-Ser] ({Biotin-Ahx}-QQLG[pY]HQDQDDS-OH) | no binding | –
Leu-Ala-Ala-Gly-Xaa-Leu-Lys-Gln-Glu-Ser-Gln-Gly [SEQ ID NO:25] | specifically precipitated; also recorded: coprecipitated | concentration of biotinylated peptide sufficient to precipitate STAT3 (comparable amounts) (STAT3 [1]): 4 to 20 µM; effect on IL-10 dependent phosphorylation of STAT3 (STAT3 [2]): specifically inhibited
Thr-Phe-Gln-Gly-Xaa-Gln-Lys-Gln-Thr-Arg-Trp-Lys [SEQ ID NO:24] | specifically precipitated; also recorded: coprecipitated | concentration of biotinylated peptide sufficient to precipitate STAT3 (comparable amounts) (STAT3 [1]): 0.8 µM; potency in inhibiting STAT3 phosphorylation relative to SEQ ID NO:25 (STAT3 [2]; concentration-dependent inhibition, FIG. 12): 5 to 10 fold; effect on IL-10 dependent phosphorylation of STAT3 (STAT3 [2]): specifically inhibited
CC(C)C[C@H](NC(=O)[C@@H](NC(=O)[C@H](Cc1c[nH]cn1)NC(=O)[C@@H]1CCCN1C(=O)[C@H](CCCCN)NC(=O)[C@H](CC(=O)O)NC(=O)[C@H](Cc1ccc(OP(=O)(O)O)cc1)NC(=O)CNC(=O)[C@H](Cc1ccccc1)NC(=O)[C@H](CO)NC(=O)[C@@H](NC(=O)CCCCCNC(=O)CCCC[C@@H]1SC[C@@H]2NC(=O)N[C@@H]21)[C@@H](C)O)C(C)C)C(=O)N[C@H](C(=O)O)C(C)C [SEQ ID NO:4, Biotin-TSFGY-PO4 DKPHVLV] ({Biotin-Ahx}-TSFG[pY]DKPHVLV-OH) | no binding | –
rHuIFNγ: Purified recombinant human IFNγ provided by Genentech, Inc. | – | IFNγ dose at which IFNγ receptor tyrosine phosphorylation reached maximal levels (IFNγ receptor α chain): 10,000 IRU/ml; IFNγ dose at which IFNγ receptor tyrosine phosphorylation was detected (IFNγ receptor α chain): 100 IRU/ml

The next lines start with results.

precipitation of / binding to the 92 kD STAT3 protein (STAT3 [1]) | Compound | other results
no binding | C[C@@H](O)[C@H](NC(=O)CCCCCNC(=O)CCCC[C@@H]1SC[C@@H]2NC(=O)N[C@@H]21)C(=O)N[C@@H](Cc1ccccc1)C(=O)N[C@@H](CCC(N)=O)C(=O)NCC(=O)N[C@@H](Cc1ccc(O)cc1)C(=O)N[C@@H](CCC(N)=O)C(=O)N[C@@H](CCCCN)C(=O)N[C@@H](CCC(N)=O)C(=O)N[C@H](C(=O)N[C@@H](CCCNC(=N)N)C(=O)N[C@@H](Cc1c[nH]c2ccccc12)C(=O)N[C@@H](CCCCN)C(=O)O)[C@@H](C)O [SEQ ID NO:28, Thr-Phe-Gln-Gly-Tyr-Gln-Lys-Gln-Thr-Arg-Trp-Lys] ({Biotin-Ahx}-TFQGYQKQTRWK-OH) | –
no binding | CC(C)C[C@H](NC(=O)CCCCCNC(=O)CCCC[C@@H]1SC[C@@H]2NC(=O)N[C@@H]21)C(=O)N[C@@H](C)C(=O)N[C@@H](C)C(=O)NCC(=O)N[C@@H](Cc1ccc(O)cc1)C(=O)N[C@@H](CC(C)C)C(=O)N[C@@H](CCCCN)C(=O)N[C@@H](CCC(N)=O)C(=O)N[C@@H](CCC(=O)O)C(=O)N[C@@H](CO)C(=O)N[C@@H](CCC(N)=O)C(=O)NCC(=O)O [SEQ ID NO:29, Leu-Ala-Ala-Gly-Tyr-Leu-Lys-Gln-Glu-Ser-Gln-Gly] ({Biotin-Ahx}-LAAGYLKQESQG-OH) | –
no binding | CC(C)C[C@H](NC(=O)[C@H](CC(=O)O)NC(=O)[C@H](CO)NC(=O)[C@H](C)NC(=O)[C@H](CC(=O)O)NC(=O)[C@H](CCC(N)=O)NC(=O)[C@@H](NC(=O)[C@H](Cc1ccc(OP(=O)(O)O)cc1)NC(=O)[C@H](CCCCN)NC(=O)[C@@H]1CCCN1C(=O)[C@H](CCC(N)=O)NC(=O)CNC(=O)CCCCCNC(=O)CCCC[C@@H]1SC[C@@H]2NC(=O)N[C@@H]21)[C@@H](C)O)C(=O)O [SEQ ID NO:27, Gly-Gln-Pro-Lys-Xaa-Thr-Gln-Asp-Ala-Ser-Asp-Leu] ({Biotin-Ahx}-GQPK[pY]TQDASDL-OH) | –
